Measurements from PubChem BioAssay (NCI).
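Tested at 5 concentrations; 48 h exposure; 96-well plates; endpoints linearly interpolated, else capped at highest concentration. At the TGI there is no net growth.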

Columns and labels:
Experiment in all cases: NCI-60 cell line screen, 48 h
[1] = system: HT29 colon
[2] = system: HCT-15 colon
[3] = system: CCRF-CEM leukemia
[4] = system: OVCAR-3 ovarian
[5] = system: UO-31 renal
[6] = system: DU-145 prostate
[7] = system: COLO 205 colon
[8] = system: TK-10 renal
[9] = system: OVCAR-8 ovarian
[10] = system: ACHN renal
[11] = system: HL-60(TB) leukemia
[12] = system: M14 melanoma
[13] = system: MDA-N
[14] = system: NCI-H522 lung
[15] = system: PC-3 prostate
[16] = system: KM12 colon
[17] = system: SR leukemia
[18] = system: MOLT-4 leukemia
[19] = system: SF-539 CNS
[20] = system: A498 renal
[21] = system: RPMI-8226 leukemia
[22] = system: EKVX NSCLC
[23] = system: NCI-H23 lung
[24] = system: LOX IMVI melanoma
[25] = system: MDA-MB-435
[26] = system: OVCAR-5 ovarian
[27] = system: MCF7 breast
[28] = system: T-47D breast
[29] = system: CAKI-1 renal
[30] = system: OVCAR-4 ovarian
[31] = system: NCI-H460 lung
[32] = system: HS 578T breast
[33] = system: UACC-257 melanoma
[34] = system: U251 CNS
[35] = system: SK-MEL-5 melanoma
[36] = system: HOP-92 NSCLC
[37] = system: IGROV1 ovarian
[38] = system: K-562 leukemia
[39] = system: MDA-MB-231 breast
[40] = system: NCI/ADR-RES ovarian
[41] = system: SNB-75 CNS
[42] = system: SK-OV-3 ovarian
[43] = system: 786-0 renal
[44] = system: SF-295 CNS
[45] = system: SW-620 colon
[46] = system: SK-MEL-2 melanoma
[47] = system: SN12C renal
[48] = system: A549 NSCLC
[49] = system: HCT-116 colon
[50] = system: BT-549 breast
[51] = system: SNB-19 CNS
[52] = system: HOP-62 NSCLC
[53] = system: UACC-62 melanoma
[54] = system: SF-268 CNS

O=C(O)CSC(CC(=O)c1ccc(Cl)cc1)c1ccc(Cl)cc1 (centres undefined)
TGI [1]: > 100 µM
TGI [2]: > 100 µM
TGI [3]: 36.3 µM
TGI [4]: 50 µM
TGI [5]: > 100 µM
TGI [6]: > 100 µM
TGI [7]: > 100 µM
TGI [8]: > 100 µM
TGI [9]: 57 µM
TGI [10]: > 100 µM
TGI [11]: 7.45 µM
TGI [12]: > 100 µM
TGI [13]: > 100 µM
TGI [14]: 45.3 µM
TGI [15]: > 100 µM
TGI [16]: 27.6 µM
TGI [17]: 7.37 µM
TGI [18]: 27 µM
TGI [19]: > 100 µM
TGI [20]: > 100 µM
TGI [21]: 61.2 µM
TGI [22]: > 100 µM
TGI [23]: > 100 µM
TGI [24]: 40.1 µM
TGI [25]: > 100 µM
TGI [26]: > 100 µM
TGI [27]: > 100 µM
TGI [28]: 98.4 µM
TGI [29]: > 100 µM
TGI [30]: > 100 µM
TGI [31]: > 100 µM
TGI [32]: > 100 µM
TGI [33]: 53.3 µM
TGI [34]: > 100 µM
TGI [35]: > 100 µM
TGI [36]: 73.2 µM
TGI [37]: 54.5 µM
TGI [38]: > 100 µM
TGI [39]: > 100 µM
TGI [40]: > 100 µM
TGI [41]: > 100 µM
TGI [42]: 97.9 µM
TGI [43]: > 100 µM
TGI [44]: > 100 µM
TGI [45]: > 100 µM
TGI [46]: > 100 µM
TGI [47]: > 100 µM
TGI [48]: > 100 µM
TGI [49]: 59.7 µM
TGI [50]: 80.7 µM
TGI [51]: > 100 µM
TGI [52]: 97.1 µM
TGI [53]: > 100 µM
TGI [54]: 79 µM
